This is an account of results in patent US20250186435A1, “PHARMACEUTICAL FORMULATIONS AND THEIR PREPARATIONS FOR TREATMENT OF CANCER” (priority 2020, published 2025).

Structures are written as SMILES.

A short description of data set [1]: Solubility of API CLX-155 in organic solvents. The data set is classed as physicochemical.
Data set [2] can be described thus: Moisture and thermal sensitivity of CLX-155. The format is physicochemical. The source says:
Dry granulation is also referred as pre-compression or double compression and is an agglomeration process designed to improve the flow and compression characteristics of powders that would otherwise have poor flow &/or compressibility. The process involves compaction of powder particles into larger pieces or compacts which are subsequently broken down into granules that can be further processed into dosage forms. Dry granulation is suitable for the compound which is sensitive to moisture and temperature.

With `CCCCCCCC(=O)Nc1nc(=O)n([C@@H]2O[C@H](C)[C@@H](OC(C)=O)[C@H]2OC(C)=O)cc1F` [CLX-155, (2R, 3R, 4R, 5R)-2-(5-Fluoro-4-octanamido 2-oxopyrimidine-1(2H)-yl)-5-methyl-tetrahydrofuran-3,4-diyl-diacetate], in data set [1] (in Acetonitrile), the Solubility entry was “Slightly Soluble”. Moreover, in data set [1] (in Methanol), the Solubility result is reported as “Freely soluble”. For the same molecule, in data set [2], the Stability towards moisture result is on record as “moisture sensitive” and the Thermal stability entry was “thermolabile”.
